These results are taken from patent US7041677B2, “Use of monochloroflosequinan in the treatment of sexual dysfunction” (R.T. Alamo Ventures I, LLC, priority 2002, dated 2006).

For one assay, the target named is T1, PDE1 (Bos taurus, UniProt P14100).
T1 construct: PDE1 partially purified from bovine heart was used; from tissue; host or cells: bovine heart
The assay is described as follows: PDE1 enzyme inhibition assay. The assay is classed as biochemical, bovine. As to conditions: 1% DMSO vehicle. The source says: In this example, a racemic mixture of monochloroflosequinan and the sulfone derivative of monochloroflosequinan were independently subjected to biochemical enzyme assays to determine their respective percent inhibition of a variety of phosphodiesterases (PDE1-PDE6). The methods used have been adapted from those described in the scientific literature, see Hidaka and Asano “Human blood platelet 3′:5′ cyclic nucleotide phosphodiesterase. Isolation of low-Km and high Km phosphodiesterase.” Biochem. Biophys. Acta 429:485 (1976); Nicholoson et al. “Differential modulation of tissue function and therapeutic potential of selective inhibitors of cyclic nucleotide phosphodiesterase isoenzymes” Trends Pharmacol. Sci. 12:19 (1991); Cortijo et al. “Investigation into the role of phosphodiesterase IV in bronchorelaxation, including studies with hyman bronchus.” Br. J. Pharmacol. 108:562 (1993); Baehr et al. “Isolation and characterization of cGMP phosphodiesterase from bovine rod outer segments.” J. Biol. Chem. 254:11669 (1979) and Gillespie and Beavo “Inhibition and stimulation of photoreceptor phosphodiesterase by dipyridamole and M&B 22,948” Molecular Pharm. 36:773 (1989). A brief summary of the conditions for each enzyme assay is provided below: • PDE1: PDE1 partially purified from bovine heart was used. The compounds were independently incubated with 13 μg PDE1 enzyme, 1.01 μM [^3H]cAMP+cAMP and CaCl2/calmodulin in Tris buffer pH 7.5 for 20 minutes at either 25° C. or 30° C. The reaction was terminated by boiling for 2 minutes, and the resulting AMP was converted to adenosine by addition of 10 mg/ml snake venom nucleotidase and further incubation at 30° C. for 10 minutes. Unhydrolyzed cAMP was bound to AGI-X2 resin, and the remaining [^3H]adenosine in the aqueous phase was quantitated by scintillation counting. • PDE2: PDE2 partially purified from human platelets was used. The compounds were independently incubated with 23 μg PDE2 enzyme, 25.1 μM [^3H]cAMP+cAMP in Tris buffer pH 7.5 for 20 minutes at either 25° C. or 30° C. The reaction was terminated by boiling for 2 minutes, and the resulting AMP was converted to adenosine by addition of 10 mg/ml snake venom nucleotidase and further incubation at 30° C. for 10 minutes. Unhydrolyzed cAMP was bound to AGI-X2 resin, and the remaining [^3H]adenosine in the aqueous phase was quantitated by scintillation counting. • PDE3: PDE3 partially purified from human platelets was used. The compounds were independently incubated with 13 ug PDE3 enzyme and 1.01 μM [^3H]cAMP+cAMP in Tris buffer pH 7.5 for 20 minutes at either 25° C. or 30° C. The reaction was terminated by boiling for 2 minutes, and the resulting AMP was converted to adenosine by addition of 10 mg/ml snake venom nucleotidase and further incubation at 30° C. for 10 minutes. Unhydrolyzed cAMP was bound to AGI-X2 resin, and the remaining [^3H]adenosine in the aqueous phase was quantitated by scintillation counting. • PDE4: PDE4 partially purified from human U-937 pronocytic cells was used. The compounds were independently incubated with 20 μg PDE4 enzyme and 1.01 μM [^3H]cAMP+cAMP in Tris buffer pH 7.5 for 20 minutes at either 25° C. or 30° C. […] Unhydrolyzed cAMP was bound to AGI-X2 resin, and the remaining [^3H]adenosine in the aqueous phase was quantitated by scintillation counting. • PDE5: PDE5 partially purified from human platelets was used. […]

Another assay has as its target T2, PDE3 (Homo sapiens, UniProt Q14432).
T2 construct: PDE3 partially purified from human platelets was used; from tissue; host or cells: human platelets
The experiment in a line: PDE3 enzyme inhibition assay. The assay is classed as biochemical. As to conditions: 1% DMSO vehicle. The source says: In this example, a racemic mixture of monochloroflosequinan and the sulfone derivative of monochloroflosequinan were independently subjected to biochemical enzyme assays to determine their respective percent inhibition of a variety of phosphodiesterases (PDE1-PDE6). The methods used have been adapted from those described in the scientific literature, see Hidaka and Asano “Human blood platelet 3′:5′ cyclic nucleotide phosphodiesterase. Isolation of low-Km and high Km phosphodiesterase.” Biochem. Biophys. Acta 429:485 (1976); Nicholoson et al. “Differential modulation of tissue function and therapeutic potential of selective inhibitors of cyclic nucleotide phosphodiesterase isoenzymes” Trends Pharmacol. Sci. 12:19 (1991); Cortijo et al. “Investigation into the role of phosphodiesterase IV in bronchorelaxation, including studies with hyman bronchus.” Br. J. Pharmacol. 108:562 (1993); Baehr et al. “Isolation and characterization of cGMP phosphodiesterase from bovine rod outer segments.” J. Biol. Chem. 254:11669 (1979) and Gillespie and Beavo “Inhibition and stimulation of photoreceptor phosphodiesterase by dipyridamole and M&B 22,948” Molecular Pharm. 36:773 (1989). A brief summary of the conditions for each enzyme assay is provided below: • PDE1: PDE1 partially purified from bovine heart was used. The compounds were independently incubated with 13 μg PDE1 enzyme, 1.01 μM [^3H]cAMP+cAMP and CaCl2/calmodulin in Tris buffer pH 7.5 for 20 minutes at either 25° C. or 30° C. The reaction was terminated by boiling for 2 minutes, and the resulting AMP was converted to adenosine by addition of 10 mg/ml snake venom nucleotidase and further incubation at 30° C. for 10 minutes. Unhydrolyzed cAMP was bound to AGI-X2 resin, and the remaining [^3H]adenosine in the aqueous phase was quantitated by scintillation counting. • PDE2: PDE2 partially purified from human platelets was used. The compounds were independently incubated with 23 μg PDE2 enzyme, 25.1 μM [^3H]cAMP+cAMP in Tris buffer pH 7.5 for 20 minutes at either 25° C. or 30° C. […] Unhydrolyzed cAMP was bound to AGI-X2 resin, and the remaining [^3H]adenosine in the aqueous phase was quantitated by scintillation counting. • PDE3: PDE3 partially purified from human platelets was used. […] Unhydrolyzed cAMP was bound to AGI-X2 resin, and the remaining [^3H]adenosine in the aqueous phase was quantitated by scintillation counting. • PDE4: PDE4 partially purified from human U-937 pronocytic cells was used. […] Unhydrolyzed cAMP was bound to AGI-X2 resin, and the remaining [^3H]adenosine in the aqueous phase was quantitated by scintillation counting. • PDE5: PDE5 partially purified from human platelets was used. […]

T2 sequence (Q14432 whole entry): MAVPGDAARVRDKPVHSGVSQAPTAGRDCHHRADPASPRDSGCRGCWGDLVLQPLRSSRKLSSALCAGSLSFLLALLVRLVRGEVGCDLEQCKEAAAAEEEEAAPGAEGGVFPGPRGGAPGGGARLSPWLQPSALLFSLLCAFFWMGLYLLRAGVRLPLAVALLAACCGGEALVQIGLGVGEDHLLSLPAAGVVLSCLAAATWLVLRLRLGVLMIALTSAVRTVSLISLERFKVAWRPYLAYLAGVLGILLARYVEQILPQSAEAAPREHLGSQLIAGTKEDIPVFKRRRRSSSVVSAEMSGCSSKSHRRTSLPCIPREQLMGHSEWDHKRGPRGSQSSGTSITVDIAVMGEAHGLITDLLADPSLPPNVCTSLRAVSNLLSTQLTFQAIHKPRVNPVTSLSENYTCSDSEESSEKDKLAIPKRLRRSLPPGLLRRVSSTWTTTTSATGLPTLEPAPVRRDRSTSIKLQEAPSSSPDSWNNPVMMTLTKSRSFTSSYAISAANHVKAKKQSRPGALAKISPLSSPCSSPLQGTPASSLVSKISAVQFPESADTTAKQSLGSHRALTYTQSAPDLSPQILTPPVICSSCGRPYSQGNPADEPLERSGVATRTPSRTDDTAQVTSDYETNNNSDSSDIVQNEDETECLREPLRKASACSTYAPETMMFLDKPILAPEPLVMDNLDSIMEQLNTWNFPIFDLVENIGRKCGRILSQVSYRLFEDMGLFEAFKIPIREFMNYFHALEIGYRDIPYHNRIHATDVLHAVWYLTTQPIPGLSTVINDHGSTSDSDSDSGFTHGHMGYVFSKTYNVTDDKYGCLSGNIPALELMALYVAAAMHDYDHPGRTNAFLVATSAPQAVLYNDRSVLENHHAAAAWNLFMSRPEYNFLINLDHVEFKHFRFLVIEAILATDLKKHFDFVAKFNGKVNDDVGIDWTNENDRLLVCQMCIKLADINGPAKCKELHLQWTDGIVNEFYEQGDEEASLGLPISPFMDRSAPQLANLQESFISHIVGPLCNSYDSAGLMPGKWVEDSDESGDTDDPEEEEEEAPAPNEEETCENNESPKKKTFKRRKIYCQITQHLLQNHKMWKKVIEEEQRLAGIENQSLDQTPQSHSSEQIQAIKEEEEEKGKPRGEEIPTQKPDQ

In the case of `Cn1cc([S+]([O-])CCl)c(=O)c2ccc(F)cc21` (racemic) [monochloroflosequinan, 3-chloromethylsulfinyl-7-fluoro-1-methyl-4-quinolone], on PDE1 (100 uM, 30° C.), the “inhibition of PDE1” value was “Significant inhibition”. The “inhibition of PDE3” value against PDE3 (100 uM, 30° C.) was “Significant inhibition”.
With `Cn1cc([S@@+]([O-])CCl)c(=O)c2ccc(F)cc21` (single isomer, unassigned) [(−)-enantiomer of monochloroflosequinan], the “inhibition of PDE1” value against PDE1 (200 μM, 25° C.) is given as “greater than 50%”. Also, the “inhibition of PDE3” value at PDE3 (200 μM, 25° C.) is “greater than 50%”.
For `Cn1cc([S+]([O-])C(Cl)Cl)c(=O)c2ccc(F)cc21` (centres unmarked) [dichloroflosequinan, 3-dichloromethylsulfinyl-7-fluoro-1-methyl-4-quinolone], at PDE1 (varying concentrations, 25° C.), the “inhibition of PDE1” value is “greater than 50%”. At PDE3 (varying concentrations, 25° C.), the “inhibition of PDE3” value is given as “greater than 50%”.
Take `Cn1cc([S@+]([O-])CCl)c(=O)c2ccc(F)cc21` (single isomer, unassigned) [(+)-enantiomer of monochloroflosequinan]: the “inhibition of PDE1” value against PDE1 (200 μM, 25° C.) is on record as “greater than 50%”. In addition, at PDE3 (200 μM, 25° C.), the “inhibition of PDE3” value is given as “greater than 50%”.
